Laboratory results published in ChEMBL document CHEMBL3217499, “Membrane disrupting antimicrobial peptide dendrimers with multiple amino termini” (Medchemcomm, 2012).
In brackets after ≈: the same amount, converted by molar mass. Where a SMILES comes first, the peptide text is derived from it. Bridges are numbered along the chain shown (N, C = ends). Roman numbers before positions name the chains, in order. Side-chain parts run from the residue outwards. The star is where a group is joined. X3 = CC(=O)N[C@@H](CC(C)C)C(=O)NCCCC[C@H](NC(=O)[C@H](CC(C)C)NC(C)=O)C(=O)*; X2 = CC[C@H](C)[C@H](N)C(=O)NCCCC[C@H](NC(=O)[C@@H](N)[C@@H](C)CC)C(=O)*; X4 = C[C@H](N)C(=O)NCCCC[C@H](NC(=O)[C@H](C)N)C(=O)*

What was measured:
Pseudomonas aeruginosa [1] = assay: Antibacterial activity against Pseudomonas aeruginosa PAO1 after 18 to 24 hrs by broth microdilution assay; format: functional
Staphylococcus aureus [2] = assay: Antibacterial activity against methicillin-resistant Staphylococcus aureus 42080 by broth microdilution assay; format: functional
Enterococcus faecalis [3] = assay: Antibacterial activity against Enterococcus faecalis ATCC 29212 by broth microdilution assay; format: functional
[4] = Hemolytic activity in human RBC after 4 hrs; format: ADME, cell-based; settings: erythrocyte
Bacillus subtilis = assay: Antibacterial activity against Bacillus subtilis BR151 after 18 to 24 hrs by broth microdilution assay; format: functional
Pseudomonas aeruginosa [5] = assay: Antibacterial activity against Pseudomonas aeruginosa ATCC 27853 by broth microdilution assay; format: functional
Staphylococcus aureus [6] = assay: Antibacterial activity against Staphylococcus aureus ATCC 29213 by broth microdilution assay; format: functional
Escherichia coli [7] = assay: Antibacterial activity against Escherichia coli DH5[alpha] after 18 to 24 hrs by broth microdilution assay; format: functional
Enterococcus faecalis [8] = assay: Antibacterial activity against Enterococcus faecalis Van BE80-8 by broth microdilution assay; format: functional
Pseudomonas aeruginosa [9] = assay: Antibacterial activity against Pseudomonas aeruginosa PAO1 HS by broth microdilution assay; format: functional
Pseudomonas aeruginosa [10] = assay: Antibacterial activity against Pseudomonas aeruginosa K799/61 by broth microdilution assay; format: functional
Pseudomonas aeruginosa [11] = assay: Antibacterial activity against Pseudomonas aeruginosa K799/WT by broth microdilution assay; format: functional
Pseudomonas aeruginosa [12] = assay: Antibacterial activity against Pseudomonas aeruginosa 8S/H by broth microdilution assay; format: functional
Escherichia coli [13] = assay: Antibacterial activity against Escherichia coli ATCC 25922 by broth microdilution assay; format: functional

| Structure (SMILES) | MIC (Pseudomonas aeruginosa [1]) | MIC (Staphylococcus aureus [2]) | MIC (Enterococcus faecalis [3]) | MHC [4] | MIC (Bacillus subtilis) | MIC (Pseudomonas aeruginosa [5]) | MIC (Staphylococcus aureus [6]) | MIC (Escherichia coli [7]) | MIC (Enterococcus faecalis [8]) | MIC (Pseudomonas aeruginosa [9]) | MIC (Pseudomonas aeruginosa [10]) | MIC (Pseudomonas aeruginosa [11]) | MIC (Pseudomonas aeruginosa [12]) | MIC (Escherichia coli [13]) |
| --- | --- | --- | --- | --- | --- | --- | --- | --- | --- | --- | --- | --- | --- | --- |
| CC(C)C[C@H](N)C(=O)NCCCC[C@H](NC(=O)[C@@H](N)CC(C)C)C(=O)N[C@@H](Cc1ccccc1)C(=O)NCCCC[C@H](NC(=O)[C@H](Cc1ccccc1)NC(=O)[C@H](CCCCNC(=O)[C@@H](N)CC(C)C)NC(=O)[C@@H](N)CC(C)C)C(=O)N1CCC[C@H]1C(=O)NCCCC[C@H](NC(=O)[C@@H]1CCCN1C(=O)[C@H](CCCCNC(=O)[C@H](Cc1ccccc1)NC(=O)[C@H](CCCCNC(=O)[C@@H](N)CC(C)C)NC(=O)[C@@H](N)CC(C)C)NC(=O)[C@H](Cc1ccccc1)NC(=O)[C@H](CCCCNC(=O)[C@@H](N)CC(C)C)NC(=O)[C@@H](N)CC(C)C)C(=O)N[C@@H](CCCCN)C(N)=O | 66 µg/mL (≈ 24.2 µM) | > 32 µg/mL | > 32 µg/mL | > 10000 µg/mL | 2 µg/mL (≈ 0.732 µM) | > 32 µg/mL | > 32 µg/mL | 19 µg/mL (≈ 6.96 µM) | > 32 µg/mL | > 32 µg/mL | > 32 µg/mL | > 32 µg/mL | > 32 µg/mL | > 32 µg/mL |
| CC(C)C[C@@H](N)C(=O)NCCCC[C@H](NC(=O)[C@H](N)CC(C)C)C(=O)N[C@H](CC(C)C)C(=O)NCCCC[C@H](NC(=O)[C@@H](CC(C)C)NC(=O)[C@H](CCCCNC(=O)[C@H](N)CC(C)C)NC(=O)[C@H](N)CC(C)C)C(=O)N[C@H](Cc1ccccc1)C(=O)NCCCC[C@H](NC(=O)[C@@H](Cc1ccccc1)NC(=O)[C@H](CCCCNC(=O)[C@@H](CC(C)C)NC(=O)[C@H](CCCCNC(=O)[C@H](N)CC(C)C)NC(=O)[C@H](N)CC(C)C)NC(=O)[C@@H](CC(C)C)NC(=O)[C@H](CCCCNC(=O)[C@H](N)CC(C)C)NC(=O)[C@H](N)CC(C)C)C(=O)N[C@H](CCCCN)C(N)=O | 60 µg/mL (≈ 22.3 µM) |  |  | > 10000 µg/mL | 2.5 µg/mL (≈ 0.928 µM) |  |  | 15 µg/mL (≈ 5.57 µM) |  |  |  |  |  |  |
| CC[C@H](C)[C@H](N)C(=O)NCCCC[C@H](NC(=O)[C@@H](N)[C@@H](C)CC)C(=O)N[C@@H](Cc1ccccc1)C(=O)NCCCC[C@H](NC(=O)[C@H](Cc1ccccc1)NC(=O)[C@H](CCCCNC(=O)[C@@H](N)[C@@H](C)CC)NC(=O)[C@@H](N)[C@@H](C)CC)C(=O)N1CCC[C@H]1C(=O)NCCCC[C@H](NC(=O)[C@@H]1CCCN1C(=O)[C@H](CCCCNC(=O)[C@H](Cc1ccccc1)NC(=O)[C@H](CCCCNC(=O)[C@@H](N)[C@@H](C)CC)NC(=O)[C@@H](N)[C@@H](C)CC)NC(=O)[C@H](Cc1ccccc1)NC(=O)[C@H](CCCCNC(=O)[C@@H](N)[C@@H](C)CC)NC(=O)[C@@H](N)[C@@H](C)CC)C(=O)N[C@@H](CCCCN)C(N)=O (I: H-IK(Ile)FK([Phe-X2])PKK-NH2 / II: H-IK(Ile)FK([Phe-X2])P; amide I:6-II:C) | 61 µg/mL (≈ 22.3 µM) | > 32 µg/mL | > 32 µg/mL | > 10000 µg/mL | 2.5 µg/mL (≈ 0.916 µM) | > 32 µg/mL | > 32 µg/mL | 18 µg/mL (≈ 6.59 µM) | > 32 µg/mL | > 32 µg/mL | > 32 µg/mL | > 32 µg/mL | > 32 µg/mL | > 32 µg/mL |
| CC(=O)N[C@@H](CC(C)C)C(=O)NCCCC[C@H](NC(=O)[C@H](CC(C)C)NC(C)=O)C(=O)N[C@@H](CC(C)C)C(=O)NCCCC[C@H](NC(=O)[C@H](CC(C)C)NC(=O)[C@H](CCCCNC(=O)[C@H](CC(C)C)NC(C)=O)NC(=O)[C@H](CC(C)C)NC(C)=O)C(=O)N[C@@H](Cc1ccccc1)C(=O)NCCCC[C@H](NC(=O)[C@H](Cc1ccccc1)NC(=O)[C@H](CCCCNC(=O)[C@H](CC(C)C)NC(=O)[C@H](CCCCNC(=O)[C@H](CC(C)C)NC(C)=O)NC(=O)[C@H](CC(C)C)NC(C)=O)NC(=O)[C@H](CC(C)C)NC(=O)[C@H](CCCCNC(=O)[C@H](CC(C)C)NC(C)=O)NC(=O)[C@H](CC(C)C)NC(C)=O)C(=O)N[C@@H](CCCCN)C(N)=O (I: Ac-LK([Leu-Ac])LK([Leu-X3])FKK-NH2 / II: Ac-LK([Leu-Ac])LK([Leu-X3])F; amide I:6-II:C) |  | > 32 µg/mL | > 32 µg/mL |  |  | > 32 µg/mL | > 32 µg/mL |  | > 32 µg/mL | > 32 µg/mL | > 32 µg/mL | > 32 µg/mL | > 32 µg/mL | > 32 µg/mL |
| CC(C)C[C@H](NC(=O)[C@H](CCCCNC(=O)[C@H](C)N)NC(=O)[C@H](C)N)C(=O)NCCCC[C@H](NC(=O)[C@H](CC(C)C)NC(=O)[C@H](CCCCNC(=O)[C@H](C)N)NC(=O)[C@H](C)N)C(=O)N[C@@H](Cc1ccccc1)C(=O)NCCCC[C@H](NC(=O)[C@H](Cc1ccccc1)NC(=O)[C@H](CCCCNC(=O)[C@H](CC(C)C)NC(=O)[C@H](CCCCNC(=O)[C@H](C)N)NC(=O)[C@H](C)N)NC(=O)[C@H](CC(C)C)NC(=O)[C@H](CCCCNC(=O)[C@H](C)N)NC(=O)[C@H](C)N)C(=O)N[C@@H](CCCCN)C(N)=O (I: H-AK(Ala)LK([Leu-X4])FKK-NH2 / II: H-AK(Ala)LK([Leu-X4])F; amide I:6-II:C) | 67 µg/mL (≈ 28.4 µM) |  |  | 1000 µg/mL | > 100 µg/mL |  |  | > 100 µg/mL |  |  |  |  |  |  |
